#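 Tested at 5 concentrations; 48 h exposure; 96-well plates; endpoints linearly interpolated, else capped at highest concentration. Here, GI50 denotes the concentration required for 50% inhibition of growth.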 Calls of active or inactive are those of the source. Rule as the data show it: active = GI50 up to about 1.1 µM and inactive = higher.
# Columns and labels:
# Test in all cases: NCI anticancer screen, dose series, 48 h
# DLD-1 = test system: DLD-1
# DMS-114 = test system: DMS-114
# EKVX = test system: EKVX
# HCT-15 = test system: HCT-15
# KM-20L2 = test system: KM-20L2
# LXFL 529 = test system: LXFL 529
# NCI-H522 = test system: NCI-H522
# RPMI-8226 = test system: RPMI-8226
# SF-539 = test system: SF-539
# SK-MEL-28 = test system: SK-MEL-28
# SR = test system: SR
# HOP-62 = test system: HOP-62
# 786-0 = test system: 786-0
Structure (SMILES),GI50 (DLD-1),GI50 (DMS-114),GI50 (EKVX),GI50 (HCT-15) [µM],GI50 (KM-20L2),GI50 (LXFL 529),GI50 (NCI-H522),GI50 (RPMI-8226),GI50 (SF-539),GI50 (SK-MEL-28),GI50 (SR),GI50 (HOP-62),GI50 (786-0)
C1=CCN(c2ccccc2)CC1,15.5 µM (inactive),32.4 µM (inactive),97.1 µM (inactive),14.8,55.6 µM (inactive),18.6 µM (inactive),16.3 µM (inactive),2.48 µM (inactive),43.5 µM (inactive),24.8 µM (inactive),2.93 µM (inactive),,
COc1cc(C(=O)CC2OC(=O)C(Cl)=C2Cl)ccc1Cl (configuration not stated),> 100 µM (inactive),> 100 µM (inactive),> 100 µM (inactive),> 100,> 100 µM (inactive),> 100 µM (inactive),> 100 µM (inactive),> 100 µM (inactive),> 100 µM (inactive),> 100 µM (inactive),> 100 µM (inactive),> 100 µM (inactive),
N#CC(C#N)=C1CCC2C(=C(C#N)C#N)CCC12 (configuration not stated),> 100 µM (inactive),> 100 µM (inactive),> 100 µM (inactive),> 100,> 100 µM (inactive),> 100 µM (inactive),> 100 µM (inactive),> 100 µM (inactive),> 100 µM (inactive),,> 100 µM (inactive),> 100 µM (inactive),> 100 µM (inactive)
CC(C)OP(=O)(OC(C)C)/C(F)=N/Nc1ccc([N+](=O)[O-])cc1,> 100 µM (inactive),> 100 µM (inactive),> 100 µM (inactive),> 100,> 100 µM (inactive),> 100 µM (inactive),> 100 µM (inactive),> 100 µM (inactive),> 100 µM (inactive),> 100 µM (inactive),> 100 µM (inactive),> 100 µM (inactive),
